In patent publication US20250188037A1, “N-(PYRROLIDIN-3-YL OR PIPERIDIN-4-YL)ACETAMIDE DERIVATIVES” (Takeda Pharmaceutical Company Limited, priority 2022, published 2025):

How the values were obtained:
SSTR4 [1] = target: T1, SSTR4 (Homo sapiens (Human), UniProt P31391); experiment: Inhibition of forskolin stimulated cAMP in cells overexpressing SSTR4; format: cell-based; conditions: inhibition of forskolin stimulated cAMP in CHO-K1 cells overexpressing SSTR4; read-out: SSTR4 Activity pEC50 (converted)
Method: Inhibition of Forskolin Stimulated cAMP in Cells Overexpressing SSTR4
This cell-based assay measures the ability of compounds to inhibit forskolin stimulated cAMP in CHO-K1 cells overexpressing SSTR4. CHO-K1 cells overexpressing SSTR4 (CHO-SSTR4) are purchased from DiscoveRx (product code 95-0059C2). The CHO-SSTR4 cells are maintained in F12K media with 10% Fetal Bovine Serum (Hyclone), 1% Pen/Strep (Life Technologies), and 800 μg/mL G418 (Life Technologies). […] The next day, the culture media is removed from the cells and the cells are washed (added then removed) with Krebs Ringer Buffer (ZenBio, KRB-1000 mL). […] The cells are incubated in 10 μL compound/stimulation buffer for 30 minutes at room temperature. Cellular cAMP levels are detected with a HTRF LANCE Ultra cAMP kit (Perkin Elmer, catalog number TRF0264).
The assay is performed in accordance with the manufacturer's instructions. […] of diluted Eu—W8044 labeled streptavidin (dilution: 1:50 in cAMP Detection Buffer) is added to each well. Then 5 μL of diluted biotin cAMP (dilution: 1:150 in cAMP Detection Buffer) is added to each well. The plates are covered and allowed to incubate for 60 minutes at room temperature on a shaker. […] The pEC50 values are generated using Activity Base for Screening Data Management.

SSTR4 [2] = target: T1, SSTR4; experiment: SSTR4 I-125 somatostatin competition binding assay; conditions: for SSTR4 Binding pIC50: membranes from CHO-K1 cells overexpressing SSTR4
Source text: The scintillator sheets are melted to filters using a heat block.

SSTR1 = SSTR1 (Homo sapiens (Human), UniProt P30872);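 further: binding assay on CHO-K1 cell membranes overexpressing SSTR1, incubated 60 min at room temperature, bound fraction collected on filters and read by scintillation counting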
SSTR1, sequence (P30872 whole entry): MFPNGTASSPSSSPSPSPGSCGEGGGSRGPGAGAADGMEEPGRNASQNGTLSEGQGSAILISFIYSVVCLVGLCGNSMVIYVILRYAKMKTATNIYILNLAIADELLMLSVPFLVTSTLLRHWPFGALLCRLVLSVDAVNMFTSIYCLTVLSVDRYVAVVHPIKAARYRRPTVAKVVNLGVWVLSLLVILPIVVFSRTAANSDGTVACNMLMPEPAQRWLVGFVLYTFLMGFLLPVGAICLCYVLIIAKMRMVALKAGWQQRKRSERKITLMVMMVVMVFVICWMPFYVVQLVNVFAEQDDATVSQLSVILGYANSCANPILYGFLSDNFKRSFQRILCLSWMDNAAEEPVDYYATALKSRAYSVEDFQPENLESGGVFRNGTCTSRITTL
Method: Membranes from CHO-K1 cells overexpressing SSTR1 are purchased from Perkin Elmer (catalog number ES-520-M400UA). […] Then 10 μg of SSTR1 membranes in 50 μL assay buffer are added per well. The plate is incubated for 60 minutes at room temperature. […] The contents of the assay plate are transferred to filters with a TomTech harvester and washed 5 times with 20 mM HEPES, 100 mM NaCl. […] The scintillator sheets are melted to the filters using a heat block. The filters are then read in a MicroBeta scintillation counter. Binding Ki curves are generated using Activity Base for Screening Data Management and the results are reported as pIC50.

T1 sequence (P31391 whole entry): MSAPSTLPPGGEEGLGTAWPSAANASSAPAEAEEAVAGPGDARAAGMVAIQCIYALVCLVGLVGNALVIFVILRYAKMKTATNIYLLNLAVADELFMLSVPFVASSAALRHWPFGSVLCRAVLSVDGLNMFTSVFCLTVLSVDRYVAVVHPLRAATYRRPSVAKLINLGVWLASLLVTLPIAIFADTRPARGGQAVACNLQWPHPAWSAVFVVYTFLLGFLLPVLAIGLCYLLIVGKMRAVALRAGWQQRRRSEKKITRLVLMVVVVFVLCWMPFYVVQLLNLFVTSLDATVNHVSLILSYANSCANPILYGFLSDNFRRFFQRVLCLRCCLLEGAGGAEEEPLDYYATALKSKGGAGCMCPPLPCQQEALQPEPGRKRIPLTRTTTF

Compound: CC[C@@H]1CN(C)CC[C@H]1NC(=O)C1(Oc2ccccc2Cl)CC1 (relative stereo) [Example 7, 1-(2-chlorophenoxy)-N-(trans-3-ethyl-1-methylpiperidin-4-yl)cyclopropane-1-carboxamide]
- EC50 (SSTR4 [1]): 178 nM

Compound: Cc1ccc(CC2(C(=O)N[C@@H]3CCN(C)C[C@H]3C)CC2)cc1 (relative stereo) [Example 11, N-(trans-1,3-dimethylpiperidin-4-yl)-1-(4-methylbenzyl)cyclopropane-1-carboxamide]
- EC50 (SSTR4 [1]): 141 nM

Compound: C[C@@H]1CN(C)CC[C@H]1NC(=O)C1(Cc2ccccc2Cl)CC1 (relative stereo) [Example 17, 1-(2-chlorobenzyl)-N-(trans-1,3-dimethylpiperidin-4-yl)cyclopropane-1-carboxamide]
- EC50 (SSTR4 [1]): 89.1 nM

Compound: C[C@@H]1CN(C)CC[C@H]1NC(=O)C1(Cc2cccc(F)c2)CC1 (relative stereo) [Example 20, N-(trans-1,3-dimethylpiperidin-4-yl)-1-(3-fluorobenzyl)cyclopropane-1-carboxamide]
- EC50 (SSTR4 [1]): 77.6 nM

Compound: CC[C@@H]1CN(C)CC[C@H]1NC(=O)C1(Cc2cccc(C)c2)CC1 (relative stereo) [Example 21, N-(trans-3-ethyl-1-methylpiperidin-4-yl)-1-(3-methylbenzyl)cyclopropane-1-carboxamide]
- EC50 (SSTR4 [1]): 42.7 nM

Compound: C[C@H]1C[C@@H](NC(=O)C(F)(F)Oc2ccccc2)CCN1 (relative stereo) [Example 50, 2,2-difluoro-N-(cis-2-methylpiperidin-4-yl)-2-phenoxyacetamide]
- EC50 (SSTR4 [1]): 57.5 nM
- IC50 (SSTR4 [2]; membranes from CHO-K1 cells overexpressing SSTR4, read-out: SSTR4 Binding pIC50 (converted)): 1320 nM

Compound: Cc1cccc(CC2(C(=O)NC3CN(C)CC3c3ccccc3)CC2)c1 (centres unmarked) [Example 2, N-(1-methyl-4-phenylpyrrolidin-3-yl)-1-(3-methylbenzyl)cyclopropane-1-carboxamide]
- EC50 (SSTR4 [1]): 34.7 nM

Compound: Cc1cccc(CC2(C(=O)NC3CN(C)CC3C)CC2)c1 (centres unmarked) [Example 6, N-(1,4-dimethylpyrrolidin-3-yl)-1-(3-methylbenzyl)cyclopropane-1-carboxamide]
- EC50 (SSTR4 [1]): 31.6 nM
- SSTR4 Binding pIC50 (SSTR4 [2]): 6.55
- IC50 (SSTR1): 8320 nM

Compound: CC1CC(NC(=O)C2(Oc3ccccc3Cl)CC2)CCN1C (centres unmarked) [Example 8, 1-(2-chlorophenoxy)-N-(1,2-dimethylpiperidin-4-yl)cyclopropane-1-carboxamide]
- EC50 (SSTR4 [1]): 182 nM

Compound: O=C(NC1CCN2CCCC12)C1(Oc2ccccc2Cl)CC1 (centres unmarked) [Example 9, 1-(2-chlorophenoxy)-N-(hexahydro-1H-pyrrolizin-1-yl)cyclopropane-1-carboxamide]
- EC50 (SSTR4 [1]): 182 nM

Compound: C[C@H]1CNCC[C@@H]1NC(=O)C1(Cc2ccc(F)cc2)CC1 [Example 13, 1-(4-fluorobenzyl)-N-((3S,4S)-3-methylpiperidin-4-yl)cyclopropane-1-carboxamide]
- EC50 (SSTR4 [1]): 2.75 nM
- SSTR4 Binding pIC50 (SSTR4 [2]): 7.45
- IC50 (SSTR1): 8710 nM

Compound: O=C(NC1CCNCC1)C(F)(F)Oc1ccccc1 [Example 14, 2,2-difluoro-2-phenoxy-N-(piperidin-4-yl)acetamide]
- EC50 (SSTR4 [1]): 67.6 nM
- SSTR4 Binding pIC50 (SSTR4 [2]): 6.39
- IC50 (SSTR1): > 50100 nM

Compound: C[C@H]1CNCC[C@@H]1NC(=O)C1(Cc2ccc(Cl)cc2)CC1 [Example 18, 1-(4-chlorobenzyl)-N-((3S,4S)-3-methylpiperidin-4-yl)cyclopropane-1-carboxamide]
- EC50 (SSTR4 [1]): 2 nM
- SSTR4 Binding pIC50 (SSTR4 [2]): 7.58
- IC50 (SSTR1): 4680 nM

Compound: O=C(N[C@H]1CCNC[C@@H]1F)C1(Cc2ccc(Cl)cc2)CC1 [Example 23, 1-(4-chlorobenzyl)-N-((3S,4S)-3-fluoropiperidin-4-yl)cyclopropane-1-carboxamide]
- EC50 (SSTR4 [1]): 23.4 nM
- SSTR4 Binding pIC50 (SSTR4 [2]): 7.13
- IC50 (SSTR1): 42700 nM

Compound: Cc1ccccc1CC1(C(=O)N[C@H]2CCNC[C@@H]2F)CC1 [Example 24, N-((3S,4S)-3-fluoropiperidin-4-yl)-1-(2-methylbenzyl)cyclopropane-1-carboxamide]
- EC50 (SSTR4 [1]): 19.5 nM
- SSTR4 Binding pIC50 (SSTR4 [2]): 7.23
- IC50 (SSTR1): > 50100 nM

Compound: C[C@H]1CNCC[C@@H]1NC(=O)C(F)(F)Cc1ccccc1 [Example 26, 2,2-difluoro-N-((3S,4S)-3-methylpiperidin-4-yl)-3-phenylpropanamide]
- EC50 (SSTR4 [1]): 14.8 nM
- SSTR4 Binding pIC50 (SSTR4 [2]): 7.15
- IC50 (SSTR1): > 50100 nM

Compound: O=C(N[C@H]1CCNC[C@@H]1F)C1(Cc2cccc(Cl)c2)CC1 [Example 27, 1-(3-chlorobenzyl)-N-((3S,4S)-3-fluoropiperidin-4-yl)cyclopropane-1-carboxamide]
- EC50 (SSTR4 [1]): 10.2 nM
- SSTR4 Binding pIC50 (SSTR4 [2]): 7.25
- IC50 (SSTR1): > 50100 nM

Compound: CN1CCC(NC(=O)C(F)(F)Oc2ccccc2)CC1 [Example 28, 2,2-difluoro-N-(1-methylpiperidin-4-yl)-2-phenoxyacetamide]
- EC50 (SSTR4 [1]): 195 nM

Compound: N#Cc1ccccc1OC(F)(F)C(=O)NC1CCNCC1 [Example 32, 2-(2-cyanophenoxy)-2,2-difluoro-N-(piperidin-4-yl)acetamide]
- EC50 (SSTR4 [1]): 50.1 nM
- SSTR4 Binding pIC50 (SSTR4 [2]): 5.49
- IC50 (SSTR1): > 50100 nM

Compound: C[C@H]1CNCC[C@@H]1NC(=O)C(F)(F)Oc1ccccc1C#N [Example 33, 2-(2-cyanophenoxy)-2,2-difluoro-N-((3S,4S)-3-methylpiperidin-4-yl)acetamide]
- EC50 (SSTR4 [1]): 16.6 nM
- SSTR4 Binding pIC50 (SSTR4 [2]): 6.79
- IC50 (SSTR1): > 50100 nM

Compound: Cc1ccc(OC(F)(F)C(=O)NC2CCNCC2)cc1 [Example 34, 2,2-difluoro-N-(piperidin-4-yl)-2-(p-tolyloxy)acetamide]
- EC50 (SSTR4 [1]): 47.9 nM
- SSTR4 Binding pIC50 (SSTR4 [2]): 6.17
- IC50 (SSTR1): > 50100 nM

Compound: C[C@H]1CN(C)CC[C@@H]1NC(=O)C1(Cc2ccc(F)cc2)CC1 [Example 35, N-((3S,4S)-1,3-dimethylpiperidin-4-yl)-1-(4-fluorobenzyl)cyclopropane-1-carboxamide]
- EC50 (SSTR4 [1]): 26.3 nM
- SSTR4 Binding pIC50 (SSTR4 [2]): 6.66
- IC50 (SSTR1): 5890 nM

Compound: C[C@H]1CN(C)CC[C@@H]1NC(=O)C1(Cc2cccc(Cl)c2)CC1 [Example 36, 1-(3-chlorobenzyl)-N-((3S,4S)-1,3-dimethylpiperidin-4-yl)cyclopropane-1-carboxamide]
- EC50 (SSTR4 [1]): 23.4 nM
- SSTR4 Binding pIC50 (SSTR4 [2]): 6.56
- IC50 (SSTR1): 4680 nM

Compound: Cc1ccccc1CC1(C(=O)N[C@H]2CCN(C)C[C@@H]2C)CC1 [Example 38, N-((3S,4S)-1,3-dimethylpiperidin-4-yl)-1-(2-methylbenzyl)cyclopropane-1-carboxamide]
- EC50 (SSTR4 [1]): 14.1 nM

Compound: CN1CC[C@H](NC(=O)C2(Cc3ccc(Cl)cc3)CC2)[C@@H](F)C1 [Example 39, 1-(4-chlorobenzyl)-N-((3S,4S)-3-fluoro-1-methylpiperidin-4-yl)cyclopropane-1-carboxamide]
- EC50 (SSTR4 [1]): 102 nM

Compound: C[C@H]1CN(C)CC[C@@H]1NC(=O)C(F)(F)Oc1ccccc1 [Example 40, N-((3S,4S)-1,3-dimethylpiperidin-4-yl)-2,2-difluoro-2-phenoxyacetamide]
- EC50 (SSTR4 [1]): 117 nM

Compound: C[C@@H]1C[C@H](NC(=O)C2(CN(C)c3cccc(Cl)n3)CC2)CCN1C [Example 41, 1-(((6-chloropyridin-2-yl)(methyl)amino)methyl)-N-((2R,4R)-1,2-dimethylpiperidin-4-yl)cyclopropane-1-carboxamide]
- EC50 (SSTR4 [1]): 56.2 nM
- SSTR4 Binding pIC50 (SSTR4 [2]): 6.53
- IC50 (SSTR1): > 50100 nM

Compound: O=C(N[C@H]1CCNC[C@@H]1F)C1(Cc2ccccc2F)CC1 [Example 43, 1-(2-fluorobenzyl)-N-((3S,4S)-3-fluoropiperidin-4-yl)cyclopropane-1-carboxamide]
- EC50 (SSTR4 [1]): 63.1 nM
- SSTR4 Binding pIC50 (SSTR4 [2]): 6.87
- IC50 (SSTR1): > 50100 nM

Compound: O=C(N[C@H]1CCNC[C@@H]1F)C1(Cc2cccc(F)c2)CC1 [Example 44, 1-(3-fluorobenzyl)-N-((3S,4S)-3-fluoropiperidin-4-yl)cyclopropane-1-carboxamide]
- EC50 (SSTR4 [1]): 20.4 nM

Compound: C[C@@H]1C[C@@H](NC(=O)C(F)(F)Oc2ccccc2)CCN1 [Example 52, 2,2-difluoro-N-((2R,4S)-2-methylpiperidin-4-yl)-2-phenoxyacetamide]
- EC50 (SSTR4 [1]): 170 nM

Compound: O=C(N[C@H]1CCNC[C@@H]1F)C1(Oc2cccc(Cl)c2)CC1 [Example 59, 1-(3-chlorophenoxy)-N-((3S,4S)-3-fluoropiperidin-4-yl)cyclopropane-1-carboxamide]
- EC50 (SSTR4 [1]): 58.9 nM

Compound: O=C(N[C@H]1CCNC[C@@H]1F)C1(Oc2ccccc2C2CC2)CC1 [Example 60, 1-(2-cyclopropylphenoxy)-N-((3S,4S)-3-fluoropiperidin-4-yl)cyclopropane-1-carboxamide]
- EC50 (SSTR4 [1]): 174 nM

Compound: CC(Oc1cccc(Cl)c1Cl)C(=O)N[C@H]1CCNC[C@@H]1F (stereo partly drawn) [Example 61, 2-(2,3-dichlorophenoxy)-N-((3S,4S)-3-fluoropiperidin-4-yl)propanamide]
- EC50 (SSTR4 [1]): 123 nM

Compound: CC(Oc1ccccc1Cl)C(=O)N[C@@H]1CCN(C)[C@H](C)C1 (stereo partly drawn) [Example 67, 2-(2-chlorophenoxy)-N-((2R,4R)-1,2-dimethylpiperidin-4-yl)propanamide]
- EC50 (SSTR4 [1]): 132 nM
